The test system of assay [1] is production and secretion of NGF in mouse brain astroglial cells. The experiment in a line: Promoting activity for the production and secretion of NGF in mouse brain astroglial cells (ELISA of medium after 24 h). It is filed as cell-based. The note with it: for fold induction at 400 µM / fold induction at 200 µM: Mus musculus, 24 h, read-out: NGF Increase Ratio; for NGF Concentration: 24 hours. How it is done:
Promoting activity for the production and secretion of NGF in mouse brain astroglial cells
The experiment was performed by inducing astroglial cells from the mouse forebrain to a culture system according to the procedures of S. Furukawa et al. which is described in Biochem. Biophys. Res. Commun., 136, 57-63 (1986).
Forebrains of 8-days old mice were dissected out and cut into small pieces. The pieces were washed with calcium- and magnesium-free phosphate-bufferedsaline (hereinafter abbreviated as PBS), treated with 0.25% trypsin containing PBS at 37° C. for 30 minutes and triturated with a Pasteur pipet to give a suspension. Cells and cell clumps were recovered by centrifugation at 200 xg for 5 minutes. They were cultured in Dulbecco modified Eagle's medium (a product of Gibco Co. hereinafter abbreviated as DMEM) containing 10% fetal calf serum, 50 μ units/ml of penicillin, and 50 μg/ml of streptomycin, for 10 to 14 days with medium changes every 3 days. After completing confluency, the cells were dissociated by trypsin treatment and recultured in new culture flasks. This procedure was repeated further twice and more. The culture became a uniform cell cluster. The cell cluster for use in this invention can be stained not less than 97% in accordance with the PAP staining method (peroxidase/[…] staining method) using anti-human glial fibrillar acidic protein (GFAP) rabbit antiserum. The cells will hereinafter be referred to as astroglial cells.
Astroglial cells were innoculated in 24-well plates having a well surface area of 2.1 cm^2 (a product of Falcon Co.) at a cell density of about 3×10^4 cells/well and cultured for 3 days in DMEM medium supplemented with 10% of fetal calf serum. After completing confluency about ([…]), the medium was changed to DMEM medium (0.5 ml/well) supplemented with 0.5% of bovine serum albumin (fraction V) and cultured for 3 days. The culture was further continued with medium changes every 3 days. After cells were practically synchronized in the quiscent stage, the medium was changed to 0.5 ml of the same medium and containing a prescribed concentration of test sample as illustrated in the Tables. NGF in the medium after cultivating for 24 hours was determined by the ELISA as mentioned above. Data are expressed as fold increase in NGF content over that in the absence of the test sample. The lower detection limit of the ELISA is 0.25 pg/ml and the NGF content of control medium was normally 1-10 pg/0.5 ml/well. Data are presented as the mean of four determinations. The results are illustrated in Tables 1-5.
(In an ELISA, binding on a coated surface is turned into a signal by an enzyme label.)

In assay [2] the test system is production and secretion of NGF in mouse L-M cells. The assay can be described thus: Promoting activity for the production and secretion of NGF in mouse L-M cells (ELISA of medium after 24 h). Format: cell-based. The note with it: for fold induction at 200 µM: Mus musculus, 24 h, read-out: NGF Increase Ratio; for NGF Concentration: 24 hours, mean of four determinations. Here is the method: Promoting activity for the production and secretion of NGF in mouse L-M cells
The medium was cultured for 3 days at a temperature of 37° C. […] The sample of the derivative tested is contained in the medium at a prescribed concentration as illustrated in the Tables. […] Data are expressed as fold increase in NGF content of the medium over that cultivated in the absence of the derivative to be tested. […] Data are presented as the mean of four determinations. The results are illustrated in Tables 1-5.

[3] abbreviates: Table 3, sample concentration 0.4 mM, fold increase over control (1.00).
[4] abbreviates: Table 3, sample concentration 0.4 mM, control 42.3.
Setting [5] is: Table 1, L-M cells, sample concentration 0.2 mM, fold increase over control (1.00).
[6] abbreviates: Table 1, L-M cells, sample concentration 0.2 mM, control 0.33.
[7] abbreviates: Table 3, sample concentration 0.2 mM, fold increase over control (1.00).
Where [8] appears, read: Table 3, sample concentration 0.2 mM, control 42.3.
Setting [9] is: Table 4, sample concentration 0.2 mM, fold increase over control.
Where [10] appears, read: Table 4, sample concentration 0.2 mM.
The mark [11] stands for this setting: Table 2, L-M cells, sample concentration 0.2 mM, fold increase over control (1.00).
[12] abbreviates: Table 2, L-M cells, sample concentration 0.2 mM, control 0.34.
Where [13] appears, read: Table 4, sample concentration 0.4 mM, fold increase over control.
Setting [14] is: Table 4, sample concentration 0.4 mM.

Read-outs that look alike come from different tables or passages of the source.

For `CC(=O)NCCc1ccc(O)c(O)c1` [Compound 1, N-Acetyl-3,4-dihydroxyphenethylamine], the fold induction at 400 µM in assay [1] (setting [3]) worked out at 4.94. The “NGF Concentration” value was determined as 208.8 ng/well in assay [1] (setting [4]) and 3.05 ng/well in assay [2] (setting [6]). Also, in assay [2] (setting [5]), the fold induction at 200 µM is 9.24.
As to `CCCC(=O)NCCc1ccc(O)c(O)c1` [Compound 3], the fold induction at 200 µM in assay [1] (setting [7]) came out at 3.66; in assay [2] (setting [5]), 9.64. Moreover, the results for the “NGF Concentration” value in assay [1] (setting [8]) and in assay [2] (setting [6]) were 155.0 ng/well and 3.18 ng/well, respectively.
As for `CC(=O)NCCCc1ccc(O)c(O)c1` [Compound 7], the fold induction at 400 µM in assay [1] (setting [3]) worked out at 4.46. Besides, the figures for the “NGF Concentration” value in assay [1] (setting [4]) and in assay [2] (setting [6]) were 188.5 ng/well and 2.81 ng/well, respectively. The fold induction at 200 µM in assay [2] (setting [5]) came to 8.52.
Turning to `CC(=O)N(C)CCc1ccc(O)c(O)c1` [Compound 10], the fold induction at 400 µM in assay [1] (setting [3]) is 4.85. The “NGF Concentration” value was 205.2 ng/well in assay [1] (setting [4]) and 3.20 ng/well in assay [2] (setting [6]). The fold induction at 200 µM in assay [2] (setting [5]) worked out at 9.7.
Taken in the same sequence, the figures for `CCCC(=O)N(C)CCc1ccc(O)c(O)c1` [Compound 12] were 4.89, 206.7 ng/well, 3.02 ng/well and 9.15.
Taken in the same sequence, the figures for `CC(=O)NCCc1ccc(OC(C)=O)c(OC(C)=O)c1` [Compound 13, N-Acetyl-3,4-diacetoxyphenethylamine] were 4.7, 198.8 ng/well, 4.03 ng/well and 12.2.
Consider `CCCC(=O)NCCc1ccc(OC(C)=O)c(OC(C)=O)c1` [Compound 15], for which the fold induction at 200 µM in assay [1] (setting [7]) was determined as 3.74; in assay [2] (setting [5]) it was 8.94. The figures for the “NGF Concentration” value in assay [1] (setting [8]) and in assay [2] (setting [6]) were 158.2 ng/well and 2.95 ng/well, respectively.
Taken in the same sequence, the figures for `CC(=O)NCCCc1ccc(OC(C)=O)c(OC(C)=O)c1` [Compound 17] were 4.27, 8.64, 180.6 ng/well and 2.85 ng/well.
For `Br.CCNCCc1ccc(O)c(O)c1` [Compound 19, N-Ethyl-3,4-dihydroxyphenethylamine hydrobromide], the fold induction at 400 µM in assay [1] (setting [3]) is 4.17. The “NGF Concentration” value in assay [1] (setting [4]) was 176.3 ng/well; in assay [2] (setting [6]), 3.50 ng/well. Besides, in assay [2], the fold induction at 200 µM came to 10.6.
As to `CCCCNCCc1ccc(O)c(O)c1` [Compound 21], in assay [1] (setting [3]), the fold induction at 400 µM turned out to be 4.91. The “NGF Concentration” value in assay [1] (setting [4]) is 207.5 ng/well; in assay [2] (setting [6]), 3.80 ng/well. The fold induction at 200 µM in assay [2] stood at 11.5.
`CNCCCc1ccc(O)c(O)c1` [Compound 26]: the fold induction at 400 µM in assay [1] (setting [3]) worked out at 4.17. In addition, the “NGF Concentration” value in assay [1] (setting [4]) turned out to be 176.5 ng/well; in assay [2] (setting [6]), 2.84 ng/well. The fold induction at 200 µM in assay [2] (setting [5]) was found to be 8.61.
Taken in the same sequence, the figures for `CCCCNCCCc1ccc(O)c(O)c1` [Compound 29] were 4.26, 180.3 ng/well, 2.88 ng/well and 8.73.
In the case of `CCCCN(C)CCc1ccc(O)c(O)c1` [Compound 32], in assay [1] (setting [3]), the fold induction at 400 µM was found to be 4.82. For the same molecule, the “NGF Concentration” value in assay [1] (setting [4]) amounted to 203.8 ng/well.
In the case of `CCCCN(C)CCc1ccc(OC(C)=O)c(OC(C)=O)c1` [Compound 33], in assay [1] (setting [3]), the fold induction at 400 µM came out at 4.74. The “NGF Concentration” value in assay [1] (setting [4]) worked out at 200.6 ng/well.
On to `CCOC(=O)CCc1ccc(O)c(O)c1` [Compound 35], for which the fold induction at 200 µM in assay [1] (setting [9]) is 4.63; in assay [2] (setting [11]), 5.82. Besides, the “NGF Concentration” value is on record as 200.1 ng/well in assay [1] (setting [10]) and 1.98 ng/well in assay [2] (setting [12]).
As for `CCCCOC(=O)CCc1ccc(O)c(O)c1` [Compound 37], the results for the fold induction at 200 µM in assay [1] (setting [9]) and in assay [2] (setting [11]) were 4.83 and 5.44, respectively. Besides, the “NGF Concentration” value is 208.5 ng/well in assay [1] (setting [10]) and 1.85 ng/well in assay [2] (setting [12]).
Taken in the same sequence, the figures for `CCOC(=O)Cc1ccc(O)c(O)c1` [Compound 39] were 4.86, 5.24, 210.1 ng/well and 1.78 ng/well.
Regarding `CCOC(=O)CCCc1ccc(O)c(O)c1` [Compound 43], the results for the fold induction at 200 µM in assay [1] (setting [9]) and in assay [2] (setting [11]) were 4.59 and 5.53, respectively. Besides, the “NGF Concentration” value in assay [1] (setting [10]) is given as 198.5 ng/well; in assay [2] (setting [12]), 1.88 ng/well.
With `CCOC(=O)CCc1ccc(OC(C)=O)c(OC(C)=O)c1` [Compound 47, Ethyl 3,4-diacetoxyphenylpropionate], the fold induction at 400 µM in assay [1] (setting [13]) was found to be 5.11. The “NGF Concentration” value is 220.8 ng/well in assay [1] (setting [14]) and 2.14 ng/well in assay [2] (setting [12]). The fold induction at 200 µM in assay [2] (setting [11]) came to 6.29.
Take `CCCCOC(=O)CCc1ccc(OC(C)=O)c(OC(C)=O)c1` [Compound 49]: the fold induction at 400 µM in assay [1] (setting [13]) amounted to 5.18. Moreover, the “NGF Concentration” value worked out at 223.7 ng/well in assay [1] (setting [14]) and 2.14 ng/well in assay [2] (setting [12]). Besides, the fold induction at 200 µM in assay [2] (setting [11]) worked out at 6.29.
Taken in the same sequence, the figures for `CCOC(=O)Cc1ccc(OC(C)=O)c(OC(C)=O)c1` [Compound 51] were 4.5, 194.6 ng/well, 1.98 ng/well and 5.82.
As for `CCOC(=O)CCCc1ccc(OC(C)=O)c(OC(C)=O)c1` [Compound 55], the fold induction at 400 µM in assay [1] (setting [13]) turned out to be 4.39. Moreover, the “NGF Concentration” value in assay [1] (setting [14]) came to 189.7 ng/well; in assay [2] (setting [12]), 1.98 ng/well. In assay [2] (setting [11]), the fold induction at 200 µM was 5.82.
Consider `NC(=O)CCc1ccc(O)c(O)c1` [Compound 58], for which the fold induction at 200 µM is 5.32 in assay [1] (setting [9]) and 5.53 in assay [2] (setting [11]). Also, the results for the “NGF Concentration” value in assay [1] (setting [10]) and in assay [2] (setting [12]) were 230.0 ng/well and 1.88 ng/well, respectively.
Take `CCNC(=O)CCc1ccc(O)c(O)c1` [Compound 60]: the figures for the fold induction at 200 µM in assay [1] (setting [9]) and in assay [2] (setting [11]) were 6.95 and 5.41, respectively. Besides, the “NGF Concentration” value was 300.4 ng/well in assay [1] (setting [10]) and 1.84 ng/well in assay [2] (setting [12]).
Turning to `CCNC(=O)Cc1ccc(O)c(O)c1` [Compound 64], the fold induction at 200 µM in assay [1] (setting [9]) worked out at 4.65; in assay [2] (setting [11]), 5.32. Further, the “NGF Concentration” value in assay [1] (setting [10]) is listed as 200.8 ng/well; in assay [2] (setting [12]), 1.81 ng/well.
Taken in the same sequence, the figures for `CCNC(=O)CCCc1ccc(O)c(O)c1` [Compound 69] were 4.49, 5.53, 194.1 ng/well and 1.88 ng/well.
As to `CCCCNC(=O)CCc1ccc(O)c(O)c1` [Compound 82], the fold induction at 200 µM in assay [1] (setting [9]) is 8.35. The “NGF Concentration” value in assay [1] (setting [10]) was determined as 360.9 ng/well.
For the molecule `CCCCNC(=O)CCc1ccc(OC(C)=O)c(OC(C)=O)c1` [Compound 83], the fold induction at 400 µM in assay [1] (setting [13]) amounted to 8.82. For the same molecule, the “NGF Concentration” value in assay [1] (setting [14]) came to 381.2 ng/well.

The record behind these values is US5232923A, “Catechol derivatives and pharmaceutical preparations containing same” (Mitsui Toatsu Chemicals, Incorporated, priority 1988, dated 1993).
